ChEMBL document CHEMBL5252613, “Discovery and anti-tumor activity of 4-(benzylamino)-6-(3,5-dimethylisoxazol-4-yl)quinolin-2(1H)-one (CG13250), a potent, selective and orally bioavailable BET bromodomain inhibitor” (Bioorg Med Chem Lett, 2023)
Values belong to the molecule of their own block, whether it stands above or below them. Active and inactive are the calls of the source. The calls are words filed in the database; no cut-off is given here.

Tests used:
[1] = Tmax in rat plasma at 50 mg/kg, po; type: ADME, organism-based
[2] = Tmax in CD-1 mouse brain at 50 mg/kg, po; type: ADME, organism-based
[3] = target: Cytochrome P450 2C9 (Homo sapiens, UniProt P11712); experiment: Inhibition of CYP2C9 (unknown origin) by fluorescence based assay; type: ADME
[4] = Tmax in CD-1 mouse plasma at 10 mg/kg, sc; type: ADME, organism-based
[5] = Toxicity in mouse xenografted with human Kasumi 1 cells assessed as signs of toxicity at 50 mg/kg, po administered once a day for 15 days starting from 25 days after transplantation; type: organism-based; conditions: in vivo, 360 h, time 15 day
[6] = target: Cytochrome P450 2D6 (Homo sapiens, UniProt P10635); experiment: Inhibition of CYP2D6 (unknown origin) by fluorescence based assay; type: ADME
[7] = target: CREB-binding protein (Homo sapiens) (UniProt Q92793); experiment: Inhibition of CREBBP (unknown origin) at 10 uM by DiscoverX BROMOscan assay
[8] = target: T1, Peregrin (Homo sapiens) (UniProt P55201); experiment: Inhibition of BRPF1 (unknown origin) at 10 uM by DiscoverX BROMOscan assay
T1 sequence (whole entry): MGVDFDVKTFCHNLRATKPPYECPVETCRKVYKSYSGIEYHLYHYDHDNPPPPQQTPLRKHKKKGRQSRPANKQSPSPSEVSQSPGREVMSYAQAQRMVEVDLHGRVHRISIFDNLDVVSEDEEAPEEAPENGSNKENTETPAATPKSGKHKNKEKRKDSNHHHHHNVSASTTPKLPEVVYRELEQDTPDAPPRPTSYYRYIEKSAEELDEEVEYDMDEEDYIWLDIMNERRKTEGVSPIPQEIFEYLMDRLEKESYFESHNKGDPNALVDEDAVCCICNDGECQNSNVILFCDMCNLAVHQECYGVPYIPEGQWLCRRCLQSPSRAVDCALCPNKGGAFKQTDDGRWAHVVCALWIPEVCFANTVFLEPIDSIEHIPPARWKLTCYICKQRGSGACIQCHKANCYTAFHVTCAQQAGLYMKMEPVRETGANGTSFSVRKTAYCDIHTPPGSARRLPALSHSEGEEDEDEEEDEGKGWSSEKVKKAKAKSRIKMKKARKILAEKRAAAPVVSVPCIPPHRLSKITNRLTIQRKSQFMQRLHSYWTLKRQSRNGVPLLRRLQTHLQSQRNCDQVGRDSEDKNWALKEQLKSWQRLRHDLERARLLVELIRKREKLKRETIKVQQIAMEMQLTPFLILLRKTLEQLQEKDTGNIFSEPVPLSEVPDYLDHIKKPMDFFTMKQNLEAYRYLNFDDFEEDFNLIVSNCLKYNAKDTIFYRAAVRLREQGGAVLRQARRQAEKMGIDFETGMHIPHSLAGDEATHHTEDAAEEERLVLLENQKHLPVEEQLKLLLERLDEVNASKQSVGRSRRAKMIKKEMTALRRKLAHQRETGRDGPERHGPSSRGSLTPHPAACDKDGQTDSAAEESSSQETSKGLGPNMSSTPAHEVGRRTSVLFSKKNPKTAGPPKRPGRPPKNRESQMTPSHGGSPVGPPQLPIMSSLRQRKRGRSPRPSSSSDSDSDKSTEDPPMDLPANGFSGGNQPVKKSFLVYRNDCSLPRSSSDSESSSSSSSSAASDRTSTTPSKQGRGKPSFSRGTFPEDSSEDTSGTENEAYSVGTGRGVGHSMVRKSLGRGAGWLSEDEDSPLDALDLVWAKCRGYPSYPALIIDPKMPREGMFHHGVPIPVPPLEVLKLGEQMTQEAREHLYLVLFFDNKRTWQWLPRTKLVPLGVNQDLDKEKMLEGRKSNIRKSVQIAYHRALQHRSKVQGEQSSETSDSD

[9] = target: T2, Bromodomain-containing protein 4 (Homo sapiens, UniProt O60885); experiment: Inhibition of BRD4 bromodomain 1/2 (unknown origin) by Alphascreen assay
[10] = Tmax in CD-1 mouse plasma at 50 mg/kg, po; type: ADME, organism-based
[11] = target: Cytochrome P450 2C19 (Homo sapiens, UniProt P33261); experiment: Inhibition of CYP2C19 (unknown origin) by fluorescence based assay; type: ADME
[12] = AUC(0 to t) in CD-1 mouse plasma at 10 mg/kg, sc; type: ADME, organism-based; design: dose 10 mg/kg, route sc
[13] = Stability in mouse liver microsomes assessed as half-life; type: ADME, Microsome
[14] = Half-life in CD-1 mouse plasma at 50 mg/kg, po; type: ADME, organism-based
[15] = target: Non-receptor tyrosine-protein kinase TYK2 (Homo sapiens) (UniProt P29597); experiment: Inhibition of TYK2 (unknown origin) at 10 uM by DiscoverX KINOMEscan relative to control
[16] = Half-life in CD-1 mouse brain at 50 mg/kg, po; type: ADME, organism-based
[17] = AUC(0 to t) in CD-1 mouse brain at 50 mg/kg, po; type: ADME, organism-based; design: dose 50 mg/kg, route po
[18] = Toxicity in mouse xenografted with human Kasumi 1 cells assessed as effect on body weight at 50 mg/kg, po administered once a day for 15 days starting from 25 days after transplantation; type: organism-based; conditions: in vivo, 360 h, time 15 day
[19] = tested on: MV4-11; experiment: Growth inhibition of human MV4-11 cells measured after 72 hrs; type: functional
[20] = Cmax in CD-1 mouse plasma at 10 mg/kg, sc; type: ADME, organism-based; design: dose 10 mg/kg, route sc
[21] = AUC(0 to t) in rat plasma at 50 mg/kg, po; type: ADME, organism-based; design: dose 50 mg/kg, route po
[22] = target: Cytochrome P450 3A4 (Homo sapiens, UniProt P08684); experiment: Inhibition of CYP3A4 (unknown origin) by fluorescence based assay; type: ADME
[23] = target: T2, Bromodomain-containing protein 4; experiment: Inhibition of BRD4 bromodomain 1/2 (unknown origin) assessed as dissociation constant by DiscoveRx BROMOscan assay
[24] = target: T3, Cytochrome P450 1A2 (Homo sapiens, UniProt P05177); experiment: Inhibition of CYP1A2 (unknown origin) by fluorescence based assay; type: ADME
T3 sequence (P05177 whole entry): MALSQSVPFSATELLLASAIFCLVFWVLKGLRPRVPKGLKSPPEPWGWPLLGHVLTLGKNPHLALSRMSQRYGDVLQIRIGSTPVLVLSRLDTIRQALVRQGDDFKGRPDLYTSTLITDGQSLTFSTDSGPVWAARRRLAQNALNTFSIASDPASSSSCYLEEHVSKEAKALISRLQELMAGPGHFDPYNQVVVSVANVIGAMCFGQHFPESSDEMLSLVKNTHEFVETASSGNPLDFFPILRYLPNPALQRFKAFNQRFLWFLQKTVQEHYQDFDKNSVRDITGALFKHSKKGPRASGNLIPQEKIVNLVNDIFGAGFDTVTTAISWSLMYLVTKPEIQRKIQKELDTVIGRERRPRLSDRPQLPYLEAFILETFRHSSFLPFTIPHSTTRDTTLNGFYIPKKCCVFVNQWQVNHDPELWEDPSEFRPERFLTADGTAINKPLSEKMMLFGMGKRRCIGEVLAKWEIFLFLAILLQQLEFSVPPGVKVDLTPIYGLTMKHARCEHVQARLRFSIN

[25] = target: Histone acetyltransferase p300 (Homo sapiens) (UniProt Q09472); experiment: Inhibition of EP300 (unknown origin) at 10 uM by DiscoverX BROMOscan assay
[26] = target: T4, Bromodomain-containing protein 9 (Homo sapiens) (UniProt Q9H8M2); experiment: Inhibition of BRD9 (unknown origin) at 10 uM by DiscoverX BROMOscan assay
T4 sequence (whole entry): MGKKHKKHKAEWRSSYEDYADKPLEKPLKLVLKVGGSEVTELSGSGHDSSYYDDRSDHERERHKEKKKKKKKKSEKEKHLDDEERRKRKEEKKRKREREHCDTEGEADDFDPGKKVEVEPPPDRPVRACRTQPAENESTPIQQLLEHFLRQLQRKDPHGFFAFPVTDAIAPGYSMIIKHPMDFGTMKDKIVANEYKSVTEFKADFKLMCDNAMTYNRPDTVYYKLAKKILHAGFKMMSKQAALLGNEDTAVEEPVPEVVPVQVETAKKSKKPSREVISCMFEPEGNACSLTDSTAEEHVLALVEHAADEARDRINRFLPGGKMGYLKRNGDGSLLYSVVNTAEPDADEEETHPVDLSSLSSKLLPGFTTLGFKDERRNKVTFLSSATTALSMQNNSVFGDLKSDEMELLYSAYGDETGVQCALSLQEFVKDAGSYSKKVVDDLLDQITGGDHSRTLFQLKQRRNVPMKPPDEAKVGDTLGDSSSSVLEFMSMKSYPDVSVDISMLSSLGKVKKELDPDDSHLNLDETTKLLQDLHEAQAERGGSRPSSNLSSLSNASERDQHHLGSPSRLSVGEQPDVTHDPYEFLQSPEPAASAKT

[27] = Half-life in rat plasma at 50 mg/kg, po; type: ADME, organism-based
[28] = tested on: Kasumi 1; experiment: Antitumor activity against human Kasumi 1 cells xenografted in mouse assessed as tumor growth inhibition at 50 mg/kg, po administered once a day for 15 days starting from 25 days after transplantation relative to control; type: functional; conditions: Kasumi 1, 360 h, time 15 day, read-out: TGI
[29] = AUC(0 to t) in CD-1 mouse plasma at 50 mg/kg, po; type: ADME, organism-based; design: dose 50 mg/kg, route po
[30] = Cmax in CD-1 mouse plasma at 50 mg/kg, po; type: ADME, organism-based; design: dose 50 mg/kg, route po
[31] = target: Tyrosine-protein kinase JAK1 (Homo sapiens) (UniProt P23458); experiment: Inhibition of JAK1 JH2 (unknown origin) at 10 uM by DiscoverX KINOMEscan relative to control
[32] = Half-life in CD-1 mouse plasma at 10 mg/kg, sc; type: ADME, organism-based
[33] = Stability in human liver microsomes assessed as half-life; type: ADME, Microsome
[34] = Cmax in CD-1 mouse brain at 50 mg/kg, po; type: ADME, organism-based; design: dose 50 mg/kg, route po
[35] = Cmax in rat plasma at 50 mg/kg, po; type: ADME, organism-based; design: dose 50 mg/kg, route po

Sequence of Cytochrome P450 2D6 (P10635 whole entry): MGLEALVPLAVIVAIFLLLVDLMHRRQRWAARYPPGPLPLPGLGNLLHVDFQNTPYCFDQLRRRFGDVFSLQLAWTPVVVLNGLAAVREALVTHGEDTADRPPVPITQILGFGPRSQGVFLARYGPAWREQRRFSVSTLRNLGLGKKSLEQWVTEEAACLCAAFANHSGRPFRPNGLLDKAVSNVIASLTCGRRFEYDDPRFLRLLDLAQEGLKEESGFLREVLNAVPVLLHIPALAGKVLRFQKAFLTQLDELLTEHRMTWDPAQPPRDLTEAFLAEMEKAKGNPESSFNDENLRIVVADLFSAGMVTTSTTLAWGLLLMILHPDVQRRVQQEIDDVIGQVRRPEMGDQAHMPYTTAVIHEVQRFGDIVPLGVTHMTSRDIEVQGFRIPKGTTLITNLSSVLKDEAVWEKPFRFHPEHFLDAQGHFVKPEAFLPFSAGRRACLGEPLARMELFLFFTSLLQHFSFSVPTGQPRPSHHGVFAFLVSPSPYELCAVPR
Sequence of Cytochrome P450 2C19 (P33261 whole entry): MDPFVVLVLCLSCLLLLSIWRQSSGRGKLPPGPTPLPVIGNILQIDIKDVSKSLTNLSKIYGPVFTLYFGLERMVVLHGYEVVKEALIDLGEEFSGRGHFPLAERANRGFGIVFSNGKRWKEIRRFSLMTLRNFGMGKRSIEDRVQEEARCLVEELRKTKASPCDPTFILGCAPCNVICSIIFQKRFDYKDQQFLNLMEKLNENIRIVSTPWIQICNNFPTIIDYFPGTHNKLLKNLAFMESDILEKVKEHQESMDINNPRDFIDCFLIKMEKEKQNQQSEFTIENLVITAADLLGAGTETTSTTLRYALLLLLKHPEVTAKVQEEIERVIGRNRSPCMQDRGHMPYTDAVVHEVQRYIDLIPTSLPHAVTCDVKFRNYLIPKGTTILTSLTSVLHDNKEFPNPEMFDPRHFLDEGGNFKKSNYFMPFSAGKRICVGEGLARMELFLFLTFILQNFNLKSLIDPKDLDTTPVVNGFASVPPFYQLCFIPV
Sequence of Tyrosine-protein kinase JAK1 (Homo sapiens) (P23458 whole entry): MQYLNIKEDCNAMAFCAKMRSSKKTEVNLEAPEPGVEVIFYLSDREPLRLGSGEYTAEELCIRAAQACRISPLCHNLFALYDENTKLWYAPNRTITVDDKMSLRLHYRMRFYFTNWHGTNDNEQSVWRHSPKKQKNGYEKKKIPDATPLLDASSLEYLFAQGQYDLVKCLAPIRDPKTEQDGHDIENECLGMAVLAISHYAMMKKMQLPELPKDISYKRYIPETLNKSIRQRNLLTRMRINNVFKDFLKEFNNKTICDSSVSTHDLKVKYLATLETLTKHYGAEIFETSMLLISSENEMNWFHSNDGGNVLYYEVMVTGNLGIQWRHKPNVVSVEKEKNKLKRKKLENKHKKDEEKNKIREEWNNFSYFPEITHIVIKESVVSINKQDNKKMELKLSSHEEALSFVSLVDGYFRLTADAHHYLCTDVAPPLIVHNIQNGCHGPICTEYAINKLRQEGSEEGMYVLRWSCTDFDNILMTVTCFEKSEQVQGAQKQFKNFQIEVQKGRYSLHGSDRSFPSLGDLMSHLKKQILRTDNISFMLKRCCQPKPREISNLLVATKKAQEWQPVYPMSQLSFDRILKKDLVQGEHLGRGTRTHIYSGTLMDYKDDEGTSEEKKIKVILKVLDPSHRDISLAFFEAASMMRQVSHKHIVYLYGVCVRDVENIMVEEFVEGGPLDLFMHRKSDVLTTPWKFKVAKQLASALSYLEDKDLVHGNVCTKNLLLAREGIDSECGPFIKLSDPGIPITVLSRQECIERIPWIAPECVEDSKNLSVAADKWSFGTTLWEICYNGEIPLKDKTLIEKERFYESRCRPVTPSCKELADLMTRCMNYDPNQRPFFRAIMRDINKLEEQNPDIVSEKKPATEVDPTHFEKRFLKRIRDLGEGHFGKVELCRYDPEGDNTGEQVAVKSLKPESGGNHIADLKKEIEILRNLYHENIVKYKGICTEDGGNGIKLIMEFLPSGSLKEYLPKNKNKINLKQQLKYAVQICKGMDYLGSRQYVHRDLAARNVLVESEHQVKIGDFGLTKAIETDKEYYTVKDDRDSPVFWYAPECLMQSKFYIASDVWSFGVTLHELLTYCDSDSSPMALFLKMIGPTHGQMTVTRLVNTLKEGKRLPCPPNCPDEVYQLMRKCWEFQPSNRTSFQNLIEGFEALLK
Sequence of Cytochrome P450 3A4 (P08684 whole entry): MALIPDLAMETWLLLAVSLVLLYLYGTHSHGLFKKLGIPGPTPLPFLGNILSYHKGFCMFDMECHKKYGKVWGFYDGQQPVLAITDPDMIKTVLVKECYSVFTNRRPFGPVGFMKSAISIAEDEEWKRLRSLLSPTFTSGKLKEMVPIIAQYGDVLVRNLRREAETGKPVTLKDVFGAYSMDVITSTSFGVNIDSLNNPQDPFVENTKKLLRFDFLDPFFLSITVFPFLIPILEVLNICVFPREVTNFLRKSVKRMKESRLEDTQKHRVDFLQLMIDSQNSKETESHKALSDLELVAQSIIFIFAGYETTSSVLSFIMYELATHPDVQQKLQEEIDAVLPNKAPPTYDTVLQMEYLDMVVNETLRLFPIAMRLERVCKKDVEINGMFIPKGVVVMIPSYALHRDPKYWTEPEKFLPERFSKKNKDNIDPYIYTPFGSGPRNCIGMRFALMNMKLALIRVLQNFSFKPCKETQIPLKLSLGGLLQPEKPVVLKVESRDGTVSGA
Sequence of Non-receptor tyrosine-protein kinase TYK2 (Homo sapiens) (P29597 whole entry): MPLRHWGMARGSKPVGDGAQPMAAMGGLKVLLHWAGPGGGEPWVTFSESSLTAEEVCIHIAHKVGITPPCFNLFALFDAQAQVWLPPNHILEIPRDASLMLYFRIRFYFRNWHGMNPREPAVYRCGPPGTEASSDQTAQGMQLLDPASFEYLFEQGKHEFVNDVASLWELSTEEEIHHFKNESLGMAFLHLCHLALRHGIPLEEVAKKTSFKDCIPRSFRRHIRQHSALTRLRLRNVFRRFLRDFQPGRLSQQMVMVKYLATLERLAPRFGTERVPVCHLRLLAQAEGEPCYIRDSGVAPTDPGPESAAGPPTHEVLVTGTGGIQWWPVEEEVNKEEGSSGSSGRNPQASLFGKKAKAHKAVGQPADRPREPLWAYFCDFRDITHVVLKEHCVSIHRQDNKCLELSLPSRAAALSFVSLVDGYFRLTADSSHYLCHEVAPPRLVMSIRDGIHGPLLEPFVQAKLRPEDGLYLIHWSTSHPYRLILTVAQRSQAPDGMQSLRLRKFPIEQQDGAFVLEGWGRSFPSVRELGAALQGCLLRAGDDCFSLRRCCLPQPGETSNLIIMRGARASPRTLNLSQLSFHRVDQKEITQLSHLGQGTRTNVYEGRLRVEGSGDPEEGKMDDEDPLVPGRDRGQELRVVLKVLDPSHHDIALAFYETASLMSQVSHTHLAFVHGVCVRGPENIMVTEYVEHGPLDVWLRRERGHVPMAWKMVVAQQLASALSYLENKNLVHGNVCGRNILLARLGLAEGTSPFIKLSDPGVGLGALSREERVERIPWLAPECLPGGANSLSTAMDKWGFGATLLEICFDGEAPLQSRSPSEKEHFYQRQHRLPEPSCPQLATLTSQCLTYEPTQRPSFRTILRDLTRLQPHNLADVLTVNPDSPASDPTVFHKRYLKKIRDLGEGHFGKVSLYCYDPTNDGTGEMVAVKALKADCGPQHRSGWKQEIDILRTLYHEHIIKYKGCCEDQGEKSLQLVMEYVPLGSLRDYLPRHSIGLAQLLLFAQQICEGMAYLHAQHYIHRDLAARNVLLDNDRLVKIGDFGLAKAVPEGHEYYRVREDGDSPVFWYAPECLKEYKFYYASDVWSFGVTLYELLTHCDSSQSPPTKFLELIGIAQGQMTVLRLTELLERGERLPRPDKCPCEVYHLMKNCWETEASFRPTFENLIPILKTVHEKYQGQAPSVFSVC
Sequence of Cytochrome P450 2C9 (P11712 whole entry): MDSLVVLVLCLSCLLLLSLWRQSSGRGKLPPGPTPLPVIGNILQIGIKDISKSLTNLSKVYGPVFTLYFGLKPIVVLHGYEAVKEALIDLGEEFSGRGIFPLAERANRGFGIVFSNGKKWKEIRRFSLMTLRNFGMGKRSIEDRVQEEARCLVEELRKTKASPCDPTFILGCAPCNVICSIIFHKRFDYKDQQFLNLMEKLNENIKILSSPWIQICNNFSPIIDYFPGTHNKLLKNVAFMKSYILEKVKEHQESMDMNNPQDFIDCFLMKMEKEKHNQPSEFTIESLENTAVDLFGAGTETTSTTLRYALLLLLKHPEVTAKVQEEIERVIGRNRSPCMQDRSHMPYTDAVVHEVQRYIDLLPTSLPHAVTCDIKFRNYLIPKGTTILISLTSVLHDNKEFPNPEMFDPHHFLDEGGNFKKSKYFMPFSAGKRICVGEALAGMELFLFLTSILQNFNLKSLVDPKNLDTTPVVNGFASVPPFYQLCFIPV

SMILES: Cc1noc(C)c1-c1ccc2[nH]c(=O)cc(-c3ccccc3)c2c1
- IC50 [9]: 3100 nM
- GI50 [19]: 16000 nM
- Kd [23]: 1300 nM

SMILES: Cc1noc(C)c1-c1ccc2[nH]c(=O)cc(N3CCCCC3)c2c1
- GI50 [19]: 833 nM
- Kd [23]: 54 nM

SMILES: Cc1noc(C)c1-c1ccc2[nH]c(=O)cc(NCc3ccccc3Br)c2c1
- GI50 [19]: 3500 nM
- Kd [23]: 210 nM

SMILES: Cc1ccc(-c2nnc(Sc3c(-c4ccccc4)c4cc(Br)ccc4[nH]c3=O)n2N)cc1
- IC50 [9]: 3700 nM
- GI50 [19]: 220 nM

SMILES: Cc1noc(C)c1-c1ccc2[nH]c(=O)cc(NCc3ccccc3Cl)c2c1
- GI50 [19]: 1660 nM
- Kd [23]: 55 nM

SMILES: Cc1noc(C)c1-c1ccc2[nH]c(=O)cc(NCc3cccc(Cl)c3)c2c1
- GI50 [19]: 1220 nM
- Kd [23]: 28 nM

SMILES: Cc1noc(C)c1-c1ccc2[nH]c(=O)cc(NCc3ccccc3F)c2c1
- Kd [23]: 130 nM

Further molecules by falling Kd [23], results first:

- GI50 [19]: 5720 nM
- Kd [23]: 490 nM
SMILES: Cc1noc(C)c1-c1ccc2[nH]c(=O)cc(NCCc3ccccc3)c2c1

- Kd [23]: 220 nM
SMILES: Cc1noc(C)c1-c1ccc2[nH]c(=O)cc(NCc3cccc(C(F)(F)F)c3)c2c1

- Tmax [1]: 1.5 h
- Tmax [2]: 0.5 h
- IC50 [3]: 6770 nM
- Tmax [4]: 1 h
- IC50 [6]: > 30000 nM
- inhibition [7]: Active
- inhibition [8]: Active
- IC50 [9]: 1100 nM
- Tmax [10]: 2 h
- IC50 [11]: > 30000 nM
- AUC(0-t) [12]: 25100 ng·h/mL
- half-life [13]: 0.412 h
- half-life [14]: 1.02 h
- inhibition [15]: > 65%
- half-life [16]: 1.39 h
- AUC(0-t) [17]: 755 ng·h/mL
- GI50 [19]: 595 nM
- Cmax [20]: 7770 ng/mL
- AUC(0-t) [21]: 34600 ng·h/mL
- IC50 [22]: > 30000 nM
- Kd [23]: 44 nM
- IC50 [24]: > 30000 nM
- inhibition [25]: Active
- inhibition [26]: Active
- half-life [27]: 2 h
- AUC(0-t) [29]: 178000 ng·h/mL
- Cmax [30]: 60900 ng/mL
- inhibition [31]: > 65%
- half-life [32]: 2.33 h
- half-life [33]: 0.202 h
- Cmax [34]: 289 ng/mL
- Cmax [35]: 9340 ng/mL
SMILES: Cc1noc(C)c1-c1ccc2[nH]c(=O)cc(NCc3ccccc3)c2c1
- Activity [5]: Non-Toxic
- Activity [18]: Non-Toxic
- inhibition in vivo at 50 mg/kg [28]: 60%
